Series [1] is described as follows: Cytotoxicity assay (AlamarBlue). It counts as cell-based, Human. The conditions noted are these: human, A549 cells. How it is done:
The cytotoxicity of the molecules was analyzed using the commercial kit AlamarBlue® (Invitrogen, Ref. DAL1025) according to the manufacturer’s instructions. Briefly, A549 cells were seeded at a density of 5 × 10^3 cells per well in 96-well plates, and decreasing serial dilutions of each molecule were diluted in 100 μL of DMEM starting at 200 μM. The cells were then incubated at 37°C for 48 h following the manufacturer’s protocol. The cytotoxic concentration 50% (CC50) value was obtained using the statistical software GraphPad Prism 6. The assay was performed in duplicate.
On the technique in general: The colour change of resazurin is a common sign of viable cells or microbes.

For series [2] the following is noted: animals; ref Ray et al., 1991; Vats, 2018; Vats and Mehre, 2020; cited from earlier work.
Series [3] concerns HAdV5-GFP. As to the kind of experiment: microbe, parasite or virus in culture. As to conditions: Human adenovirus sp. It counts as cell-based, human adenovirus (HAdV5). How it is done: Compounds were tested using low MOI infections (0.06 vp/cell), initially at concentrations of 10 μM and subsequently in a dose-response assay ranging from 10 μM to 2.44 nM in a plaque assay. Briefly, 293β5 cells were seeded in 6-well plates at a density of 1 × 10^6 cells per well in duplicate for each condition. When the cells reached 80%–90% confluency, they were infected with HAdV5-GFP and rocked for 2 h at 37°C. After the incubation, the inoculum was removed and the cells were washed once with PBS. Cells were then carefully overlaid with equal parts of 4 mL/well 1.6% ([…]) Difco Agar Noble (Becton, Dickinson & Co., Sparks, MD, USA) and 2× Eagle’s Minimum Essential Medium (EMEM; BioWhittaker) supplemented with 2×penicillin/streptomycin, 2× L-glutamine, and 10% FBS. The mixture also contained the compounds in the concentration ranges described above. Following incubation for 7 days at 37°C, plates were scanned with a Typhoon FLA 9000 imager (GE Healthcare Life Sciences) and the formed plaques were quantified with ImageJ ([Schneider et al., 2012]). Plaque counting was performed to calculate the 50% inhibitory concentration (IC50) of each compound using the statistical software GraphPad Prism 6.

The test system of a further series is HCMV. As to the kind of experiment: Impact on HCMV replication (qPCR of HCMV DNA in HFF). The series is classed as cell-based, human cytomegalovirus. The conditions noted are these: 2-fold IC50 (HAdV plaque assay), 72 h. Here is the method: To test the anti-HCMV activity of these rotenolone-related compounds, human foreskin fibroblasts (HFF; ATCC, Manassas, VA) were seeded in a 24-well plate (8.3 × 10^4 cells/well), infected with HCMV (MOI 0.05 vp/cell), and incubated in complete DMEM in the presence of either 2-fold IC50 concentration of each compound obtained in the plaque assay against HAdV or the same volume of DMSO (positive control) in duplicate. The cells were incubated for 72 h at 37°C and 5% CO2 and HCMV DNA was purified from the cell lysate using E.Z.N.A Tissue DNA Kit (Omega Biotek, Norcross, GA, USA) following the manufacturer’s instructions. The qPCR primers, conditions, and protocols were the same as previously reported ([Mazzotta et al., 2020b]).
A general note: In qPCR the cycle at which signal appears reflects the starting amount.

Series [4] deals with HAdV5-GFP. Nature of the series: HAdV time of addition assay. The series is classed as cell-based, human adenovirus (HAdV5). The conditions noted are these: 10-fold IC50. Here is the method:
The anti-HAdV effect of these natural compounds at different time-points was measured through a time-curve assay using 293β5 cells (3 × 10^4 cells/well in Corning black wall, clear bottom 96-well plates) infected with HAdV5-GFP (MOI 2,000 vp/cell) in the presence of 100 μL of complete DMEM containing 10-fold IC50 concentration of each comound obtained in the plaque assay for each compound or the same volume of DMSO (positive control). A standard infection curve was generated in parallel by infecting cells in the absence of compounds using 2-fold serial dilutions of the virus from an MOI of 2,000 vp/cell in order to extrapolate the GFP resulting from each molecule with its corresponding MOI.
Parallel samples of HAdV5 were incubated with or without the selected compounds on ice for 1 h. HAdV5 was then added to 293β5 cells and incubated at 37°C. Compounds were then added at the indicated time points until the last time point at 2 h. Then, the cells were incubated for an additional 48 h at 37°C and 5% CO2 before being analyzed for GFP expression using a Typhoon 9410 imager (GE Healthcare Life Sciences) and ImageQuantTL (GE Healthcare Life Sciences), as we described earlier.

The term CC50 denotes the concentration that lowers cell viability or growth by half. Read a low CC50 as harm at low concentration. As usually defined, the IC50 is the point on the concentration scale where inhibition reaches its midpoint. The inhibition is the relative decrease from the control value, in per cent. With `C=C(C)[C@H]1Cc2c(ccc3c2O[C@@H]2COc4cc(OC)c(OC)cc4[C@@H]2C3=O)O1` [Rotenone, (2R,6aS,12aS)-8,9-dimethoxy-2-(prop-1-en-2-yl)-1,2,12,12a-tetrahydrochromeno[3,4-b]furo[2,3-h]chromen-6-(6aH)-one], it took 600 ± 200 nM to reach half-maximal cytotoxicity in series [1] (CC50 at 48 h). Also, the estimated lethal dose in series [2] is 300 to 500 mg/kg. Moreover, the IC50 in the series with HAdV5-GFP [3] (168 h, read-out: IC50 plaque assay) amounted to 3.9 ± 0.1 nM. Besides, the inhibition at 0.004 µM in the series on HAdV5-GFP [3] (read-out: inhibition of plaque formation) came out at 67.8%. In addition, in the series with HCMV, the “inhibition of HCMV replication” value stood at 92.1%. Besides, the “time dependence of inhibitory activity” value with HAdV5-GFP [4] (addition up to 2 h) is listed as “sharp loss of inhibitory activity”. Also, the “loss of inhibitory activity” value is reported as “more than 25%” in the series on HAdV5-GFP [4] (compound added at 10 min p.i.) and “more than 60%” with HAdV5-GFP [4] (compound added at 40 min p.i.).
